Consider three compounds from paper PMC11664589, “A Versatile “Synthesis Tag” (SynTag) for the Chemical Synthesis of Aggregating Peptides and Proteins” (Journal of the American Chemical Society, 2024).

Starred links: 1 amine or outer side, 2 acyl side, 3 side chain; linkers in the order of their positions; H or OH if unused. Non-standard residues stand in square brackets, D forms with d. Residues, ends and D or L forms follow the SMILES beside them. No end group written: not given here. X1 = C[C@H](N[*:1])C(=O)n1c(=O)n(C)c2ccc(C(=O)[*:2])cc21

Data set [1] is described as follows: UHPLC elution as indicator of hydrophilicity. The data set is classed as physicochemical. Conditions: standard UHPLC conditions, 214 nm; with versus without SynTag.
The conditions of data set [2]: once synthesized; cited from earlier work. From the text:
Amyloid-β is a biologically relevant peptide that is investigated for its role in Alzheimer’s disease (Figure 5D). The peptide is notoriously difficult to synthesize because it severely aggregates at the very beginning of the synthesis (i.e., residues 27–42).

In the case of `CC[C@H](C)[C@H](NC(=O)[C@H](C)NC(=O)CNC(=O)[C@@H](N)CCCCN)C(=O)N[C@H](C(=O)NCC(=O)N[C@@H](CC(C)C)C(=O)N[C@@H](CCSC)C(=O)N[C@H](C(=O)NCC(=O)NCC(=O)N[C@H](C(=O)N[C@H](C(=O)N[C@H](C(=O)N[C@@H](C)C(=O)n1c(=O)n(C)c2ccc(C(=O)N[C@@H](CCCNC(=N)N)C(=O)N[C@@H](CCCNC(=N)N)C(=O)N[C@@H](CCCNC(=N)N)C(=O)N[C@@H](CCCNC(=N)N)C(=O)N[C@@H](CCCNC(=N)N)C(=O)N[C@@H](CCCNC(=N)N)C(N)=O)cc21)[C@@H](C)CC)C(C)C)C(C)C)C(C)C)[C@@H](C)CC` [Aβ42[27–42]-SynTag] (H-KGAIIGLMVGGVVI[X1]RRRRRR-NH2), the “hydrophilicity by UHPLC elution / peak shape (in words)” value in data set [1] is “increased hydrophilicity”.
For “Amyloid-β: biologically relevant peptide investigated for its role in Alzheimer’s disease”, the “solubility (in words)” value in data set [2] is on record as “barely soluble”.
KGAIIGLMVGGVVIA-NH2 [Aβ42[27–42]]: in data set [1], the “hydrophilicity by UHPLC elution / peak shape (in words)” value was “elutes later than Aβ42[27–42]-MeNbz-Arg6”.
